Measurements published in US20240041991A1, “STABLE LIQUID DISPERSINB COMPOSITIONS” (KANE BIOTECH INC., priority 2020, published 2024).
Read-outs that look alike come from different tables or passages of the source. Marks after values point to notes of the source that are not given here.

System: DispersinB
Type: biochemical, Aggregatibacter actinomycetemcomitans
Settings: for % enzymatic activity of DispersinB (Mean): polyol % as in label; for temperature stabilizing effect on DispersinB at elevated temperatures: 42° C., 52° C., and 62° C.
Procedure: Samples from each formula was incubated at 3 different temperatures (42° C., 52° C. and 62° C.) for 3 hours. Following a 3 hour incubation, the samples were brought to room temperature for enzymatic activity assay.
Two-tailed paired T-test was performed by to compare each polyol containing treatment with the treatment devoid of polyol. Treatment with probability values (p) less than 5% (0.05) was considered significant.

## OC[C@@H](O)[C@@H](O[C@H]1O[C@H](CO)[C@@H](O)[C@H](O)[C@H]1O)[C@H](O)[C@@H](O)CO [Maltitol, 4-O-α-D-Glucopyranosyl-D-glucitol]
4° C., freshly made control without polyol = 100%, listed as 1% Maltitol
  % enzymatic activity of DispersinB (Mean): 102%
4° C., freshly made control without polyol = 100%, listed as 2.5% Maltitol
  % enzymatic activity of DispersinB (Mean): 99%
4° C., freshly made control without polyol = 100%, listed as 5% Maltitol
  % enzymatic activity of DispersinB (Mean): 95%
4° C., freshly made control without polyol = 100%, listed as 10% Maltitol
  % enzymatic activity of DispersinB (Mean): 138* %
4° C., freshly made control without polyol = 100%, listed as 15% Maltitol
  % enzymatic activity of DispersinB (Mean): 104%
4° C., freshly made control without polyol = 100%, listed as 20% Maltitol
  % enzymatic activity of DispersinB (Mean): 107%
4° C., freshly made control without polyol = 100%, listed as 25% Maltitol
  % enzymatic activity of DispersinB (Mean): 102%
42° C. for 3 hours, control without polyol = 100%, listed as 1% Maltitol
  % enzymatic activity of DispersinB (Mean): 106* %
42° C. for 3 hours, control without polyol = 100%, listed as 2.5% Maltitol
  % enzymatic activity of DispersinB (Mean): 110* %
42° C. for 3 hours, control without polyol = 100%, listed as 5% Maltitol
  % enzymatic activity of DispersinB (Mean): 107* %
42° C. for 3 hours, control without polyol = 100%, listed as 10% Maltitol
  % enzymatic activity of DispersinB (Mean): 143* %
42° C. for 3 hours, control without polyol = 100%, listed as 15% Maltitol
  % enzymatic activity of DispersinB (Mean): 110* %
42° C. for 3 hours, control without polyol = 100%, listed as 20% Maltitol
  % enzymatic activity of DispersinB (Mean): 116* %
42° C. for 3 hours, control without polyol = 100%, listed as 25% Maltitol
  % enzymatic activity of DispersinB (Mean): 129* %
52° C. for 3 hours, control without polyol = 100%, listed as 1% Maltitol
  % enzymatic activity of DispersinB (Mean): 17* %
52° C. for 3 hours, control without polyol = 100%, listed as 2.5% Maltitol
  % enzymatic activity of DispersinB (Mean): 24* %
52° C. for 3 hours, control without polyol = 100%, listed as 5% Maltitol
  % enzymatic activity of DispersinB (Mean): 37* %
52° C. for 3 hours, control without polyol = 100%, listed as 10% Maltitol
  % enzymatic activity of DispersinB (Mean): 111* %
52° C. for 3 hours, control without polyol = 100%, listed as 15% Maltitol
  % enzymatic activity of DispersinB (Mean): 102* %
52° C. for 3 hours, control without polyol = 100%, listed as 20% Maltitol
  % enzymatic activity of DispersinB (Mean): 113* %
52° C. for 3 hours, control without polyol = 100%, listed as 25% Maltitol
  % enzymatic activity of DispersinB (Mean): 120* %
62° C. for 3 hours, control without polyol = 100%, listed as 1% Maltitol
  % enzymatic activity of DispersinB (Mean): 0%
62° C. for 3 hours, control without polyol = 100%, listed as 2.5% Maltitol
  % enzymatic activity of DispersinB (Mean): 0%
62° C. for 3 hours, control without polyol = 100%, listed as 5% Maltitol
  % enzymatic activity of DispersinB (Mean): 0%
62° C. for 3 hours, control without polyol = 100%, listed as 10% Maltitol
  % enzymatic activity of DispersinB (Mean): 6* %
62° C. for 3 hours, control without polyol = 100%, listed as 15% Maltitol
  % enzymatic activity of DispersinB (Mean): 8* %
62° C. for 3 hours, control without polyol = 100%, listed as 20% Maltitol
  % enzymatic activity of DispersinB (Mean): 7* %
62° C. for 3 hours, control without polyol = 100%, listed as 25% Maltitol
  % enzymatic activity of DispersinB (Mean): 5* %

## OC[C@@H](O)[C@@H](O)[C@H](O)[C@H](O)CO[C@H]1O[C@H](CO)[C@@H](O)[C@H](O)[C@H]1O [Isomalt, (2R,3R,4R,5R)-6-[[(2S,3R,4S,5S,6R)-3,4,5-Trihydroxy-6-(hydroxymethyl)-2-tetrahydropyranyl]oxy]hexane-1,2,3,4,5-pentol]
4° C., freshly made control without polyol = 100%, listed as 1% Isomalt
  % enzymatic activity of DispersinB (Mean): 105%
4° C., freshly made control without polyol = 100%, listed as 2.5% Isomalt
  % enzymatic activity of DispersinB (Mean): 105%
4° C., freshly made control without polyol = 100%, listed as 3% Isomalt
  % enzymatic activity of DispersinB (Mean): 106%
4° C., freshly made control without polyol = 100%, listed as 5% Isomalt
  % enzymatic activity of DispersinB (Mean): 107%
4° C., freshly made control without polyol = 100%, listed as 10% Isomalt
  % enzymatic activity of DispersinB (Mean): 106%
4° C., freshly made control without polyol = 100%, listed as 15% Isomalt
  % enzymatic activity of DispersinB (Mean): 101%
4° C., freshly made control without polyol = 100%, listed as 20% Isomalt
  % enzymatic activity of DispersinB (Mean): 102%
42° C. for 3 hours, control without polyol = 100%, listed as 1% Isomalt
  % enzymatic activity of DispersinB (Mean): 102* %
42° C. for 3 hours, control without polyol = 100%, listed as 2.5% Isomalt
  % enzymatic activity of DispersinB (Mean): 100* %
42° C. for 3 hours, control without polyol = 100%, listed as 3% Isomalt
  % enzymatic activity of DispersinB (Mean): 100* %
42° C. for 3 hours, control without polyol = 100%, listed as 5% Isomalt
  % enzymatic activity of DispersinB (Mean): 99* %
42° C. for 3 hours, control without polyol = 100%, listed as 10% Isomalt
  % enzymatic activity of DispersinB (Mean): 107* %
42° C. for 3 hours, control without polyol = 100%, listed as 15% Isomalt
  % enzymatic activity of DispersinB (Mean): 106* %
42° C. for 3 hours, control without polyol = 100%, listed as 20% Isomalt
  % enzymatic activity of DispersinB (Mean): 107* %
52° C. for 3 hours, control without polyol = 100%, listed as 1% Isomalt
  % enzymatic activity of DispersinB (Mean): 2%
52° C. for 3 hours, control without polyol = 100%, listed as 2.5% Isomalt
  % enzymatic activity of DispersinB (Mean): 3%
52° C. for 3 hours, control without polyol = 100%, listed as 3% Isomalt
  % enzymatic activity of DispersinB (Mean): 4* %
52° C. for 3 hours, control without polyol = 100%, listed as 5% Isomalt
  % enzymatic activity of DispersinB (Mean): 11* %
52° C. for 3 hours, control without polyol = 100%, listed as 10% Isomalt
  % enzymatic activity of DispersinB (Mean): 37* %
52° C. for 3 hours, control without polyol = 100%, listed as 15% Isomalt
  % enzymatic activity of DispersinB (Mean): 82* %
52° C. for 3 hours, control without polyol = 100%, listed as 20% Isomalt
  % enzymatic activity of DispersinB (Mean): 102* %
62° C. for 3 hours, control without polyol = 100%, listed as 1% Isomalt
  % enzymatic activity of DispersinB (Mean): 0%
62° C. for 3 hours, control without polyol = 100%, listed as 2.5% Isomalt
  % enzymatic activity of DispersinB (Mean): 0%
62° C. for 3 hours, control without polyol = 100%, listed as 3% Isomalt
  % enzymatic activity of DispersinB (Mean): 0%
62° C. for 3 hours, control without polyol = 100%, listed as 5% Isomalt
  % enzymatic activity of DispersinB (Mean): 0%
62° C. for 3 hours, control without polyol = 100%, listed as 10% Isomalt
  % enzymatic activity of DispersinB (Mean): 0%
62° C. for 3 hours, control without polyol = 100%, listed as 15% Isomalt
  % enzymatic activity of DispersinB (Mean): 12* %
62° C. for 3 hours, control without polyol = 100%, listed as 20% Isomalt
  % enzymatic activity of DispersinB (Mean): 6* %

## Propylene glycol
4° C., freshly made control without polyol = 100%, listed as Prop. Glycol 2.5%
  % enzymatic activity of DispersinB (Mean): 119* %
4° C., freshly made control without polyol = 100%, listed as Prop. Glycol 5%
  % enzymatic activity of DispersinB (Mean): 114* %
4° C., freshly made control without polyol = 100%, listed as Prop. Glycol 10%
  % enzymatic activity of DispersinB (Mean): 117* %
4° C., freshly made control without polyol = 100%, listed as Prop. Glycol 20%
  % enzymatic activity of DispersinB (Mean): 124* %
4° C., freshly made control without polyol = 100%, listed as Prop. Glycol 30%
  % enzymatic activity of DispersinB (Mean): 106%
42° C. for 3 hours, control without polyol = 100%, listed as Prop. Glycol 2.5%
  % enzymatic activity of DispersinB (Mean): 109* %
42° C. for 3 hours, control without polyol = 100%, listed as Prop. Glycol 5%
  % enzymatic activity of DispersinB (Mean): 93* %
42° C. for 3 hours, control without polyol = 100%, listed as Prop. Glycol 10%
  % enzymatic activity of DispersinB (Mean): 95* %
42° C. for 3 hours, control without polyol = 100%, listed as Prop. Glycol 20%
  % enzymatic activity of DispersinB (Mean): 46* %
  temperature stabilizing effect on DispersinB at elevated temperatures: did not exhibit temperature stabilizing effects

## OC[C@@H](O)[C@@H](O)[C@H](O)[C@H](O)CO [Mannitol]
4° C., freshly made control without polyol = 100%, listed as 1% Mannitol
  % enzymatic activity of DispersinB (Mean): 98%
4° C., freshly made control without polyol = 100%, listed as 2.5% Mannitol
  % enzymatic activity of DispersinB (Mean): 100%
4° C., freshly made control without polyol = 100%, listed as 5% Mannitol
  % enzymatic activity of DispersinB (Mean): 98%
4° C., freshly made control without polyol = 100%, listed as 10% Mannitol
  % enzymatic activity of DispersinB (Mean): 102%
4° C., freshly made control without polyol = 100%, listed as 12% Mannitol
  % enzymatic activity of DispersinB (Mean): 97%
42° C. for 3 hours, control without polyol = 100%, listed as 1% Mannitol
  % enzymatic activity of DispersinB (Mean): 77%
42° C. for 3 hours, control without polyol = 100%, listed as 2.5% Mannitol
  % enzymatic activity of DispersinB (Mean): 87* %
42° C. for 3 hours, control without polyol = 100%, listed as 5% Mannitol
  % enzymatic activity of DispersinB (Mean): 88* %
42° C. for 3 hours, control without polyol = 100%, listed as 10% Mannitol
  % enzymatic activity of DispersinB (Mean): 87* %
42° C. for 3 hours, control without polyol = 100%, listed as 12% Mannitol
  % enzymatic activity of DispersinB (Mean): 86* %
  temperature stabilizing effect on DispersinB at elevated temperatures: did not exhibit temperature stabilizing effects
52° C. for 3 hours, control without polyol = 100%, listed as 5% Mannitol
  % enzymatic activity of DispersinB (Mean): 1* %
52° C. for 3 hours, control without polyol = 100%, listed as 10% Mannitol
  % enzymatic activity of DispersinB (Mean): 14* %
52° C. for 3 hours, control without polyol = 100%, listed as 12% Mannitol
  % enzymatic activity of DispersinB (Mean): 53* %
